Results reported in ChEMBL document CHEMBL1201862, “PubChem BioAssay data set” (2004).
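The compound was tested at five concentrations on cells cultured in 96-well plates, with a 48-hour exposure period. GI50 marks 50% less growth.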 Active and inactive are the calls of the source. Rule as the data show it: active = GI50 up to about 1.1 µM and inactive = higher.

Legend:
Assay in all cases: DTP human tumour cell line panel, 48 h
MDA-MB-435 = tested on: MDA-MB-435
COLO 205 = tested on: COLO 205
UACC-62 = tested on: UACC-62
A549 = tested on: A549
U-251 = tested on: U-251
M14 = tested on: M14
MDA-N = tested on: MDA-N
IGROV-1 = tested on: IGROV-1
SF-295 = tested on: SF-295
K562 = tested on: K562
MDA-MB-231 = tested on: MDA-MB-231
SK-MEL-28 = tested on: SK-MEL-28
NCI-H522 = tested on: NCI-H522
DU-145 = tested on: DU-145
T47D = tested on: T47D
OVCAR-5 = tested on: OVCAR-5
HT-29 = tested on: HT-29
SF-539 = tested on: SF-539
HCT-116 = tested on: HCT-116
HCT-15 = tested on: HCT-15

Cc1ccc2nc3c(C)c(Cl)c(=O)cc-3sc2c1
GI50 (MDA-MB-435): 18.5 µM (inactive) | GI50 (COLO 205): 29.9 µM (inactive) | GI50 (UACC-62): 8.57 µM (inactive) | GI50 (A549): 16.7 µM (inactive) | GI50 (U-251): 12.7 µM (inactive) | GI50 (M14): 15.2 µM (inactive) | GI50 (MDA-N): 16.9 µM (inactive) | GI50 (IGROV-1): 37.9 µM (inactive) | GI50 (SF-295): 23.3 µM (inactive) | GI50 (K562): 3.65 µM (inactive) | GI50 (MDA-MB-231): 3.35 µM (inactive) | GI50 (SK-MEL-28): 32.7 µM (inactive) | GI50 (NCI-H522): 11.1 µM (inactive) | GI50 (DU-145): 44 µM (inactive) | GI50 (T47D): 58.1 µM (inactive) | GI50 (OVCAR-5): 34.3 µM (inactive) | GI50 (HT-29): 60.5 µM (inactive) | GI50 (SF-539): 13.1 µM (inactive) | GI50 (HCT-116): 17.8 µM (inactive) | GI50 (HCT-15): 10.6 µM

Cn1ccnc1SC(F)(F)c1nc2ccccc2o1
GI50 (MDA-MB-435): > 100 µM (inactive) | GI50 (COLO 205): > 100 µM (inactive) | GI50 (UACC-62): > 100 µM (inactive) | GI50 (A549): > 100 µM (inactive) | GI50 (U-251): > 100 µM (inactive) | GI50 (M14): > 100 µM (inactive) | GI50 (MDA-N): > 100 µM (inactive) | GI50 (IGROV-1): > 100 µM (inactive) | GI50 (SF-295): > 100 µM (inactive) | GI50 (K562): > 100 µM (inactive) | GI50 (MDA-MB-231): > 100 µM (inactive) | GI50 (SK-MEL-28): > 100 µM (inactive) | GI50 (NCI-H522): > 100 µM (inactive) | GI50 (DU-145): > 100 µM (inactive) | GI50 (T47D): > 100 µM (inactive) | GI50 (OVCAR-5): > 100 µM (inactive) | GI50 (HT-29): > 100 µM (inactive) | GI50 (SF-539): > 100 µM (inactive) | GI50 (HCT-116): > 100 µM (inactive) | GI50 (HCT-15): > 100 µM

C=C1C(OC2O[C@@H]3O[C@@]4(C)CC[C@H]5[C@H](C)CC[C@@H](C2=C)[C@@]35O4)O[C@@H]2O[C@@]3(C)CC[C@H]4[C@H](C)CC[C@@H]1[C@@]24O3 (stereo not given in full)
GI50 (MDA-MB-435): > 50 µM (inactive) | GI50 (COLO 205): > 50 µM (inactive) | GI50 (UACC-62): > 50 µM (inactive) | GI50 (A549): > 50 µM (inactive) | GI50 (U-251): > 50 µM (inactive) | GI50 (M14): > 50 µM (inactive) | GI50 (MDA-N): > 50 µM (inactive) | GI50 (IGROV-1): > 50 µM (inactive) | GI50 (SF-295): > 50 µM (inactive) | GI50 (K562): > 50 µM (inactive) | GI50 (MDA-MB-231): > 50 µM (inactive) | GI50 (SK-MEL-28): > 50 µM (inactive) | GI50 (NCI-H522): > 50 µM (inactive) | GI50 (DU-145): > 50 µM (inactive) | GI50 (T47D): > 50 µM (inactive) | GI50 (OVCAR-5): > 50 µM (inactive) | GI50 (HT-29): > 50 µM (inactive) | GI50 (SF-539): > 50 µM (inactive) | GI50 (HCT-116): > 50 µM (inactive) | GI50 (HCT-15): > 50 µM

CCC1C(=O)OCc2c1cc1n(c2=O)Cc2cc3ccccc3nc2-1 (stereo not given)
GI50 (MDA-MB-435): 44.3 µM (inactive) | GI50 (COLO 205): 72.3 µM (inactive) | GI50 (UACC-62): 3.72 µM (inactive) | GI50 (A549): 5.09 µM (inactive) | GI50 (U-251): 3.53 µM (inactive) | GI50 (M14): 3.38 µM (inactive) | GI50 (MDA-N): 45.6 µM (inactive) | GI50 (IGROV-1): 17.6 µM (inactive) | GI50 (SF-295): 2.38 µM (inactive) | GI50 (K562): 18.1 µM (inactive) | GI50 (MDA-MB-231): > 100 µM (inactive) | GI50 (SK-MEL-28): 13.2 µM (inactive) | GI50 (NCI-H522): 7.73 µM (inactive) | GI50 (DU-145): 2.98 µM (inactive) | GI50 (T47D): 4.38 µM (inactive) | GI50 (OVCAR-5): 33.4 µM (inactive) | GI50 (HT-29): 29.5 µM (inactive) | GI50 (SF-539): 1.73 µM (inactive) | GI50 (HCT-116): 8.41 µM (inactive) | GI50 (HCT-15): 43.4 µM

CCOC(=O)/C=C(/C(=O)OCC)n1cc(C)c(=O)n(Cc2cnnn2COCCOC(C)=O)c1=O
GI50 (MDA-MB-435): 14.4 µM (inactive) | GI50 (COLO 205): 3.79 µM (inactive) | GI50 (UACC-62): 15.2 µM (inactive) | GI50 (A549): 50.4 µM (inactive) | GI50 (U-251): 20.4 µM (inactive) | GI50 (M14): 14.7 µM (inactive) | GI50 (MDA-N): 23.1 µM (inactive) | GI50 (IGROV-1): 17 µM (inactive) | GI50 (SF-295): > 100 µM (inactive) | GI50 (K562): 2.99 µM (inactive) | GI50 (MDA-MB-231): 16 µM (inactive) | GI50 (SK-MEL-28): 16.4 µM (inactive) | GI50 (NCI-H522): 1.58 µM (inactive) | GI50 (DU-145): 24.5 µM (inactive) | GI50 (T47D): 6.93 µM (inactive) | GI50 (OVCAR-5): 16.4 µM (inactive) | GI50 (HT-29): 13.9 µM (inactive) | GI50 (SF-539): 5.22 µM (inactive) | GI50 (HCT-116): 13.3 µM (inactive) | GI50 (HCT-15): 7.45 µM
